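Growth conditions: 96-well plates. Treatment: test compound, 48 hours, 5 concentrations. Analysis: linear interpolation between bracketing concentrations; unreached endpoints set to highest concentration. TGI marks complete inhibition of growth.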
Columns and labels:
Experiment in all cases: inhibition of tumour cell growth, NCI panel, 48 h
[1] = system: 786-0 renal
[2] = system: SF-268 CNS
[3] = system: SNB-75 CNS
[4] = system: NCI-H460 lung
[5] = system: SK-MEL-28 melanoma
[6] = system: CCRF-CEM leukemia
[7] = system: HT29 colon
[8] = system: A549 NSCLC
[9] = system: SK-OV-3 ovarian
[10] = system: PC-3 prostate
[11] = system: SK-MEL-5 melanoma
[12] = system: KM12 colon
[13] = system: HL-60(TB) leukemia
[14] = system: DU-145 prostate
[15] = system: HCT-116 colon

| SMILES | TGI [1] [µM] | TGI [2] [µM] | TGI [3] [µM] | TGI [4] [µM] | TGI [5] [µM] | TGI [6] [µM] | TGI [7] [µM] | TGI [8] [µM] | TGI [9] [µM] | TGI [10] [µM] | TGI [11] [µM] | TGI [12] [µM] | TGI [13] [µM] | TGI [14] [µM] | TGI [15] [µM] |
| --- | --- | --- | --- | --- | --- | --- | --- | --- | --- | --- | --- | --- | --- | --- | --- |
| O=C(Nc1ccc(Cl)cc1)NS(=O)(=O)c1coc2cc(F)ccc2c1=O | > 100 | > 100 | > 100 | > 100 | > 100 | > 100 | > 100 | > 100 | > 100 | > 100 | > 100 | > 100 |  |  |  |
| CCOC(=O)P(=O)(O)c1ccc(N(C)Cc2ccccc2)cc1 | > 100 | > 100 | > 100 |  | > 100 | > 100 | > 100 | > 100 | > 100 | > 100 | > 100 | > 100 | > 100 | > 100 | > 100 |
| CN(C)Nc1cc(=O)[nH]c(=O)[nH]1 | > 100 | > 100 |  | > 100 | > 100 | > 100 | > 100 | > 100 |  | > 100 | > 100 | > 100 | > 100 | > 100 | > 100 |
| CCOC(=O)c1cccn1S(=O)(=O)c1cc(Cl)ccc1NC(=O)CC | > 100 |  | > 100 | > 100 | > 100 | > 100 |  | > 100 | > 100 | > 100 | > 100 | > 100 | > 100 | > 100 | > 100 |
| CC1C2(C)OC(=N)C(C#N)(C(c3ccccc3)O2)C1(C#N)C#N (stereo not drawn) | 51.1 | 76.1 | > 100 | 25.1 |  | 67.6 | 45.8 | > 100 | > 100 | 88.7 | 30.3 | > 100 | 40.1 | > 100 | 49.8 |
| CC(=O)NC1C(OCc2ccccc2)OC(CO)C(O)C1OC(C)C(=O)NC(C(=O)N[C@@H](CCC(=O)NCCNCCNc1c2ccccc2nc2cccc([N+](=O)[O-])c12)C(N)=O)C(C)C (stereo partly drawn) | 76.9 | > 100 | > 100 | > 100 | > 100 | > 100 |  | 97 | > 100 | > 100 |  | 98.7 | > 100 | > 100 | 56.2 |
| O=C1/C(=C/c2cccc(F)c2)CCCc2ccccc21 | 30.9 | 28.1 | 41.3 | 31.1 | 30.2 | 34 | 25.9 | 38.2 | 68.2 | 29.1 |  | 24.4 | 62.9 | 30.6 | 29 |
| COC(=O)C1(C(=O)OC)Cc2ccc(OC)cc2C2=C1C(=O)c1ccccc1C2=O | > 47.9 | 26.2 | 35.8 | 33 | 31.4 | 11.8 | 59.5 | 30.9 |  | 4.18 | 19.3 | 23.5 | > 21.1 | 30.3 | 10.9 |
| O=C1/C(=C/c2cccc(Br)c2)CCc2ccccc21 | 29.8 | 21.8 | 30 | 28.5 | 33.8 | 13.4 | 27.1 | 34.6 | 47.2 | 27.7 |  | 20.7 | 28.3 | 30.9 | 19.9 |
| O=C1NC2ON=C(c3ccccc3)C2C2ON=C(c3ccccc3)N12 (stereo not drawn) | > 100 | > 100 | > 100 | > 100 |  |  | > 100 | > 100 | > 100 | > 100 | > 100 | > 100 |  | > 100 |  |
| Cn1c(=O)c(Br)c(C=O)n(CCO[N+](=O)[O-])c1=O | 17.3 | 31.3 | 27 | 31.5 | 4.73 | 5.25 |  | 33 | 38.7 | 23.5 | 23.9 |  | 4.46 | > 100 | 16.1 |
| Nc1ncnn2c(C3OC(CO)C(O)C3O)ccc12 (stereo not drawn) | 0.807 | 1.99 | 0.866 | 0.918 | 0.592 | 0.627 | 1.45 | 3.14 |  | 0.762 | 0.527 | 0.677 | 0.328 | 0.74 | 0.151 |
| CCc1n[nH]c(=O)n1/N=C/c1c(O)ccc2ccccc12 | > 100 | > 100 | > 100 |  | > 100 | > 100 |  | > 100 | > 100 | > 100 | > 100 | > 100 |  | > 100 | > 100 |
| COC(=O)C1(CCC(C)=O)CCCCCC1=O (stereo not drawn) | > 100 | > 100 | > 100 | > 100 | > 100 |  | > 100 | > 100 | > 100 | > 100 | > 100 | > 100 |  | > 100 | > 100 |
| COC1(OC)c2no[n+]([O-])c2CCC1O (stereo not drawn) | > 100 | > 100 |  | > 100 | > 100 | > 100 | > 100 | > 100 | > 100 | > 100 | > 100 | > 100 |  | > 100 | > 100 |
| CCSc1[nH]c(NC(=S)NC(=O)c2ccccc2Cl)c(C(N)=O)c1C(N)=O | > 10 | > 10 | > 10 |  | > 10 | > 10 | > 10 | > 10 | > 10 | > 10 | > 10 | > 10 | > 10 | > 10 |  |
| NC(N)=N/N=C/c1c(-c2ccc(Cl)cc2)nc2sccn12 | 2.99 | 3.72 | 3.61 | 3.53 | 3.44 | 4.23 | 3.23 | 3.15 | 10.8 | 3.33 | 3.19 |  |  | 13.1 | 2.95 |

From PubChem BioAssay (NCI)
